Data from patent publication US10463695B2, “Methods and compositions for use in the prevention, treatment and/or alleviation of cancer” (priority 2016, dated 2019).
Read-outs that look alike come from different tables or passages of the source.

Experiments:
[1] = Whole body autoradiography of pregnant mice, zinc isotope 65Zn; assay type: in vivo
Description: (§1) The present inventor commissioned studies where the function of the placenta was investigated using radioactive isotopes of cadmium and zinc. Pregnant female mice were injected intravenously with 8 μc of ^109CdCl2 obtained from Philips Ltd., Eindhoven, Holland. The injection of isotope was made into the tail vein according to standard practice. The mice were injected so that the day of sacrifice coincided approximately with the 18th day after conception, determined by the presence of a vaginal plug after mating. The mice were sacrificed under ether anesthesia by immersion in a mixture of acetone and liquid carbon dioxide (about −80 C). The mice were then sagittally sectioned in a cold room at −10 C according to standard practice, and the sections obtained were affixed to cellulose tape.
(§2) Each section was then apposed to X-ray film together with an isotope reference standard. The sections and films were kept at −10 C until exposure was complete. The determination of the order of cadmium and zinc concentration in different organs was made through densitometric comparison of the autoradiographic exposure caused by the organs, compared to the reference standard.

[2] = Whole body autoradiography of pregnant mice, cadmium isotope 109Cd; assay type: in vivo; conditions: for Passage of Cd through the placenta: pregnant mice, intravenous 109CdCl2, about 18th day after conception, autoradiography
Description: as §1, §2

[3] = cited from earlier work

SMILES	Passage of Zn through the placenta [1]	Passage of Zn through the placenta ([1]; listed as 65Zn)	Passage of Cd through the placenta [2]	Passage of Cd through the placenta ([2]; listed as 109Cd)	Tissue enrichment of 109Cd ([2]; pregnant mouse, autoradiograph, FIG. 3)	Concentration at which acute toxicity is observed ([3]; cadmium in blood)	Threshold at which medical treatment needs to be initiated ([3]; cadmium, information supplied by VITA Laboratorio)
[Zn] [Zn, zinc]	passed through the placenta and was enriched in the fetal tissue	capable of passing through the placenta	–	–	–	–	–
[Cd] [Cd, cadmium]	–	–	did not pass the placental barrier	no cadmium has passed through the placenta into the fetus	enriched in the liver and kidney, and to some extent in placental tissue	around 50 μng/ml	50 nmol/L
